# Data published in US20230066011A1, “PYRROLOPYRIMIDINE DERIVATIVE, AND PHARMACEUTICAL COMPOSITION FOR PREVENTING OR TREATING PROTEIN KINASE-RELATED DISEASE COMPRISING SAME AS ACTIVE INGREDIENT” (VORONOI CO., LTD., priority 2019, published 2023).
# Columns and labels:
# Assay type in all cases: biochemical
# [1] = target: T1, human GST-CLK1 (Homo sapiens, UniProt P49759); experiment: GST-CLK1 enzyme inhibition, ADP-Glo kinase assay; conditions: ATP 10 μM, GST-CLK1 129-end
# T1 construct: purified human GST-CLK1 (129-end, SignalChem) enzyme; purchased SignalChem
# T1 sequence (P49759 129-484 limits assumed): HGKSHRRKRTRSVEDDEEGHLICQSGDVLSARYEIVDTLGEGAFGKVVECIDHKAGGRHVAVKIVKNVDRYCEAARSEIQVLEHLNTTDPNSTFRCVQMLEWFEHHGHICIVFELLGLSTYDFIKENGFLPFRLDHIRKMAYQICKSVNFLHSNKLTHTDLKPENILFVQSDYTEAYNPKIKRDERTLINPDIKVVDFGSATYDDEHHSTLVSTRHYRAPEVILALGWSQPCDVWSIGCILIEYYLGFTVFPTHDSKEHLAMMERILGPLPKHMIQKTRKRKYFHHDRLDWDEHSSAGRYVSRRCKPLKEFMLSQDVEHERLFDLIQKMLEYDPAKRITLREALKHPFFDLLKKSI
# Procedure, shortened: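 Human GST-CLK1 (129-end, 3 ng) reacted with substrate and 10 μM ATP for 1 h at 25° C in 40 mM Tris-HCl pH 7.4, 20 mM MgCl2, 0.5 mg/mL BSA, 50 μM DTT. ADP-Glo luminescence was normalised to solvent control; IC50 (nM) from 3 data sets.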
# [2] = target: T2, human GST-DYRK1A (Homo sapiens, UniProt Q13627); experiment: GST-DYRK1A enzyme inhibition, ADP-Glo kinase assay; conditions: ATP 10 μM, GST-DYRK1A full length, read-out: DYRK1 IC50
# T2 construct: purified human GST-DYRK1A (full length, Thermo Scientifics) enzyme; purchased Thermo Scientifics
# Procedure, shortened: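 Full-length human GST-DYRK1A (10 ng) with 10 μM ATP and specific substrate in 40 mM Tris-HCl pH 7.4, 20 mM MgCl2, 0.5 mg/mL BSA, 50 μM DTT, 1 h at 25 °C. ADP formation read by ADP-Glo luminescence relative to solvent control; IC50 from three data sets.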
# [3] = target: LRRK2 (G2019S) (Homo sapiens, UniProt Q5S007, G2019S); experiment: LRRK2 G2019S enzyme inhibition, ADP-Glo kinase assay; design: purchased SignalChem L10-12GG; conditions: ATP 25 μM
# Sequence of LRRK2 (G2019S) (Q5S007 970-2527 G2019S limits assumed): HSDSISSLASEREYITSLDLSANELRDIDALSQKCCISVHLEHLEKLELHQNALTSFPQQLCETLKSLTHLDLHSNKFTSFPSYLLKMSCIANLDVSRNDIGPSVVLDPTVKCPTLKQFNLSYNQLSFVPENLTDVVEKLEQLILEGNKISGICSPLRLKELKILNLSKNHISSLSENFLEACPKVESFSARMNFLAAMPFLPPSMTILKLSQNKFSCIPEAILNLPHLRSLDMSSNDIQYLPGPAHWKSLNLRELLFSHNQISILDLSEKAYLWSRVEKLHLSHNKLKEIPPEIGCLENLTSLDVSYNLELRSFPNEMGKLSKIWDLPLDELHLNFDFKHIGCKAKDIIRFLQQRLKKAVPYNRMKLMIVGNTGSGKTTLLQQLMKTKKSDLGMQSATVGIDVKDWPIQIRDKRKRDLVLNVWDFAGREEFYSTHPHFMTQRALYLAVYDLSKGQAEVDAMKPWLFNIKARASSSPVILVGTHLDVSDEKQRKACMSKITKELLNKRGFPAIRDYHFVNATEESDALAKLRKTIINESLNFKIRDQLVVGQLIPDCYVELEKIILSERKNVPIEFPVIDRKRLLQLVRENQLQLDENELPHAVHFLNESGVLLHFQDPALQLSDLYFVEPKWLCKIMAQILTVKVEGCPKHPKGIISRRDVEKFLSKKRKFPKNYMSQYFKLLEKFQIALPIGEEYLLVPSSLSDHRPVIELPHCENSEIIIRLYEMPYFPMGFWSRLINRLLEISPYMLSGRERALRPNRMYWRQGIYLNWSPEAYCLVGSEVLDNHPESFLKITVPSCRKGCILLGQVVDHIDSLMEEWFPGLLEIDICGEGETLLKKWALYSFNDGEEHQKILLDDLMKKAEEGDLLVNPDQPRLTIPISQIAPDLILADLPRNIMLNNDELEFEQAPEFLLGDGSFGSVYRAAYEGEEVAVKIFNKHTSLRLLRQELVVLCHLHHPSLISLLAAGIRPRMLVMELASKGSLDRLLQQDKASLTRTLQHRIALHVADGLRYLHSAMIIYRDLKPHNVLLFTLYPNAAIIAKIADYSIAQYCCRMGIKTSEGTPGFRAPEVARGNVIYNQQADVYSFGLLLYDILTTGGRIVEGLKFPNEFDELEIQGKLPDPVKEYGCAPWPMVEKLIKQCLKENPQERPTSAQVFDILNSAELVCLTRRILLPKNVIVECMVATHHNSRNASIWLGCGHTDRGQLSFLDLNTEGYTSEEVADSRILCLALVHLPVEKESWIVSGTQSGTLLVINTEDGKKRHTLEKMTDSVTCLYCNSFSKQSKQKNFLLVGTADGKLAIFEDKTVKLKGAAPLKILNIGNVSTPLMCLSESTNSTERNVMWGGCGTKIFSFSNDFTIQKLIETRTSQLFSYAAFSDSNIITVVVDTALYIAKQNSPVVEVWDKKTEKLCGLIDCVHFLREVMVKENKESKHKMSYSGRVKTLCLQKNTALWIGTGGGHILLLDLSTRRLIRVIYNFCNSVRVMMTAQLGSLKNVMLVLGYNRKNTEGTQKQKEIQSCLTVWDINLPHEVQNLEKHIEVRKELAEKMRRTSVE
# Description: To evaluate an inhibitory activity of the compound according to the present invention against LRRK2, LRRK2 (G2019S), DYRK1, CLK1, and TTK kinases, experiments were performed as follows.
# Each of the Example compounds was reacted with a purified human LRRK2 G2019S (L10-12GG, SignalChem) enzyme to evaluate an ability to inhibit an enzyme using a method as described below. A composition of 40 mM Tris-HCl (pH 7.4), 20 mM MgCl2, 0.5 mg/mL BSA, and 50 μM DTT was used as a reaction buffer, and all reactions of test substances were performed in the reaction buffer. Each of the compounds was diluted […] from a 10 mM DMSO stock using a serial dilution method, and enzyme activities were measured at final compound concentrations of 50, 10, 2, 0.4, 0.08, 0.016, 0.0032, 0.00064, 0.000128, 0.0000256, 0.00000512, and 0.000001024 μM. In the test, purified ATP (25 μM) and an enzyme substrate (0.2 μg) were reacted with a human LRRK2 G2019S (16 ng) enzyme at 25° C. for 2 hours, and the enzyme activities were then determined using an in vitro ADP-Glo™ kinase assay (Promega). An enzyme-activity reaction solution, an ADP-Glo reaction solution, and an enzyme-ability detection solution were reacted at a ratio of 2:2:1 to measure a degree of inhibition of the enzyme activity with luminescence. The degree of inhibition of the enzyme activity according to the treatment concentration of each of the compounds was calculated based on the fluorescence of the enzyme activity of the solvent control which was not treated with the compound. In this case, the concentration of each of the compounds inhibiting 50% of the enzyme activity was determined to be an IC50 (nM) value, and calculated using Prism (Version 5.01; GraphPad) software.
SMILES,IC50 [1] [nM],IC50 [2] [nM],IC50 [3] [nM]
"COc1cc(S(C)(=O)=O)ccc1Nc1nc(NCC2CCC2)c2cc[nH]c2n1 [Example 39, N^4-(cyclobutylmethyl)-N^2-(2-methoxy-4-(methylsulfonyl)phenyl)-7H-pyrrolo[2,3-d]pyrimidine-2,4-diamine 2,2,2-trifluoroacetate]",301 to 1000,301 to 1000,< 100
"COc1cc(S(=O)(=O)N2CCOCC2)ccc1Nc1nc(NCC2CCCC2)c2cc[nH]c2n1 [Example 40, N^4-(cyclopentylmethyl)-N^2-(2-methoxy-4-(morpholinosulfonyl)phenyl)-7H-pyrrolo[2,3-d]pyrimidine-2,4-diamine 2,2,2-trifluoroacetate]",301 to 1000,301 to 1000,301 to 1000
"COc1cc(S(=O)(=O)N2CCC(N3CCOCC3)CC2)ccc1Nc1nc(NCC2CCCC2)c2cc[nH]c2n1 [Example 41, N^4-(cyclopentylmethyl)-N^2-(2-methoxy-4-((4-morpholinopiperidin-1-yl)sulfonyl)phenyl)-7H-pyrrolo[2,3-d]pyrimidine-2,4-diamine 2,2,2-trifluoroacetate]",301 to 1000,301 to 1000,< 100
"COc1cc(S(C)(=O)=O)ccc1Nc1nc(NCC2CCCC2)c2cc[nH]c2n1 [Example 42, N^4-(cyclopentylmethyl)-N^2-(2-methoxy-4-(methylsulfonyl)phenyl)-7H-pyrrolo[2,3-d]pyrimidine-2,4-diamine 2,2,2-trifluoroaceate]",301 to 1000,301 to 1000,101 to 300
"CC(C)CNc1nc(Nc2ccc(C(=O)N3CCOCC3)c3c2OCCO3)nc2[nH]ccc12 [Example 44, (8-((4-(isobutylamino)-7H-pyrrolo[2,3-d]pyrimidin-2-yl)amino)-2,3-dihydrobenzo[b][1,4]dioxin-5-yl)(morpholino)methanone]",301 to 1000,301 to 1000,< 100
"CC(C)Nc1nc(Nc2ccc(C(=O)N3CCOCC3)c3c2OCCO3)nc2[nH]ccc12 [Example 45, (8-((4-(isopropylamino)-7H-pyrrolo[2,3-d]pyrimidin-2-yl)amino)-2,3-dihydrobenzo[b][1,4]dioxin-5-yl)(morpholino)methanone 2,2,2-trifluoroacetate]",301 to 1000,301 to 1000,< 100
"COCCNc1nc(Nc2ccc(C(=O)N3CCOCC3)c3c2OCCO3)nc2[nH]ccc12 [Example 46, (8-((4-((2-methoxyethyl)amino)-7H-pyrrolo[2,3-d]pyrimidin-2-yl)amino)-2,3-dihydrobenzo[b][1,4]dioxin-5-yl)(morpholino)methanone 2,2,2-trifluoroacetate]",301 to 1000,301 to 1000,< 100
"O=C(c1ccc(Nc2nc(NC3CCC3)c3cc[nH]c3n2)c2c1OCCO2)N1CCOCC1 [Example 47, (8-((4-(cyclobutylamino)-7H-pyrrolo[2,3-d]pyrimidin-2-yl)amino)-2,3-dihydrobenzo[b][1,4]dioxin-5-yl)(morpholino)methanone]",301 to 1000,301 to 1000,< 100
"O=C(c1ccc(Nc2nc(NC3CCCC3)c3cc[nH]c3n2)c2c1OCCO2)N1CCOCC1 [Example 48, (8-((4-(cyclopentylamino)-7H-pyrrolo[2,3-d]pyrimidin-2-yl)amino)-2,3-dihydrobenzo[b][1,4]dioxin-5-yl)(morpholino)methanone]",301 to 1000,301 to 1000,< 100

# Continued, values first:
IC50 [1] [nM],IC50 [2] [nM],IC50 [3] [nM],SMILES
301 to 1000,301 to 1000,< 100,"COc1cc(S(=O)(=O)N2CCOCC2)ccc1Nc1nc(NC2CCCC2)c2cc[nH]c2n1 [Example 25, N^4-cyclopentyl-N^2-(2-methoxy-4-(morpholinosulfonyl)phenyl)-7H-pyrrolo[2,3-d]pyrimidine-2,4-diamine 2,2,2-trifluoroacetate]"
301 to 1000,301 to 1000,< 100,"COc1cc(S(=O)(=O)N2CCOCC2)ccc1Nc1nc(NC2CCCCC2)c2cc[nH]c2n1 [Example 26, N^4-cyclohexyl-N^2-(2-methoxy-4-(morpholinosulfonyl)phenyl)-7H-pyrrolo[2,3-d]pyrimidine-2,4-diamine 2,2,2-trifluoroacetate]"
301 to 1000,301 to 1000,< 100,"COc1cc(S(C)(=O)=O)ccc1Nc1nc(NC2CCCCC2)c2cc[nH]c2n1 [Example 27, N^4-cyclohexyl-N^2-(2-methoxy-4-(methylsulfonyl)phenyl)-7H-pyrrolo[2,3-d]pyrimidine-2,4-diamine 2,2,2-trifluoroacetate]"
301 to 1000,301 to 1000,< 100,"COc1cc(S(C)(=O)=O)ccc1Nc1nc(NC2CCOCC2)c2cc[nH]c2n1 [Example 30, N^2-(2-methoxy-4-(methylsulfonyl)phenyl)-N^4-(tetrahydro-2H-pyran-4-yl)-7H-pyrrolo[2,3-d]pyrimidine-2,4-diamine 2,2,2-trifluoroacetate]"
301 to 1000,301 to 1000,< 100,"COc1cc(S(=O)(=O)N2CCOCC2)ccc1Nc1nc(NCC2CC2)c2cc[nH]c2n1 [Example 31, N^4-(cyclopropylmethyl)-N^2-(2-methoxy-4-(morpholinosulfonyl)phenyl)-7H-pyrrolo[2,3-d]pyrimidine-2,4-diamine 2,2,2-trifluoroacetate]"
301 to 1000,301 to 1000,< 100,"COc1cc(S(=O)(=O)N2CCC(N3CCOCC3)CC2)ccc1Nc1nc(NCC2CC2)c2cc[nH]c2n1 [Example 32, N^4-(cyclopropylmethyl)-N^2-(2-methoxy-4-((4-morpholinopiperidin-1-yl)sulfonyl)phenyl)-7H-pyrrolo[2,3-d]pyrimidine-2,4-diamine]"
301 to 1000,301 to 1000,< 100,"COc1cc(S(C)(=O)=O)ccc1Nc1nc(NCC2CC2)c2cc[nH]c2n1 [Example 33, N^4-(cyclopropylmethyl)-N^2-(2-methoxy-4-(methylsulfonyl)phenyl)-7H-pyrrolo[2,3-d]pyrimidine-2,4-diamine]"
301 to 1000,301 to 1000,< 100,"COCC(C)(C)Nc1nc(Nc2ccc(S(=O)(=O)N3CCOCC3)cc2OC)nc2[nH]ccc12 [Example 34, N^4-(1-methoxy-2-methylpropan-2-yl)-N^2-(2-methoxy-4-(morpholinosulfonyl)phenyl)-7H-pyrrolo[2,3-d]pyrimidine-2,4-diamine]"
101 to 300,301 to 1000,< 100,"COCC(C)(C)Nc1nc(Nc2ccc(S(=O)(=O)N3CCC(N4CCOCC4)CC3)cc2OC)nc2[nH]ccc12 [Example 35, N^4-(1-methoxy-2-methylpropan-2-yl)-N^2-(2-methoxy-4-((morpholinopiperidin-1-yl)sulfonyl)phenyl)-7H-pyrrolo[2,3-d]pyrimidine-2,4-diamine]"
301 to 1000,301 to 1000,< 100,"COCC(C)(C)Nc1nc(Nc2ccc(S(C)(=O)=O)cc2OC)nc2[nH]ccc12 [Example 36, N^4-(1-methoxy-2-methylpropan-2-yl)-N^2-(2-methoxy-4-(methylsulfonyl)phenyl)-7H-pyrrolo[2,3-d]pyrimidine-2,4-diamine]"
301 to 1000,301 to 1000,< 100,"COc1cc(S(=O)(=O)N2CCOCC2)ccc1Nc1nc(NCC2CCC2)c2cc[nH]c2n1 [Example 37, N^4-(cyclobutylmethyl)-N^2-(2-methoxy-4-(morpholinosulfonyl)phenyl)-7H-pyrrolo[2,3-d]pyrimidine-2,4-diamine]"
301 to 1000,301 to 1000,< 100,"COc1cc(S(=O)(=O)N2CCC(N3CCOCC3)CC2)ccc1Nc1nc(NCC2CCC2)c2cc[nH]c2n1 [Example 38, N^4-(cyclobutylmethyl)-N^2-(2-methoxy-4-((4-morpholinopiperidin-1-yl)sulfonyl)phenyl)-7H-pyrrolo[2,3-d]pyrimidine-2,4-diamine 2,2,2-trifluoroacetate]"
